Results from US8541418B2, “Inhibitors of polo-like kinase” (Elan Pharmaceutical, Inc., priority 2009, dated 2013).
pIC50: −log10 of the molar value. Like-named read-outs stand apart in the source and are kept apart here.

Legend:
Type in all cases: biochemical
PLK2 = PLK2 (Homo sapiens, UniProt Q9NYY3); assay: PLK TR-FRET peptide assay, PLK2; settings: read-out: Plk2 IC50
PLK3 = PLK3 (Homo sapiens, UniProt Q9H4B4); assay: PLK TR-FRET peptide assay, PLK3
PLK1 = PLK1 (Homo sapiens, UniProt P53350); assay: PLK TR-FRET peptide assay, PLK1
PLK1, sequence (P53350 whole entry): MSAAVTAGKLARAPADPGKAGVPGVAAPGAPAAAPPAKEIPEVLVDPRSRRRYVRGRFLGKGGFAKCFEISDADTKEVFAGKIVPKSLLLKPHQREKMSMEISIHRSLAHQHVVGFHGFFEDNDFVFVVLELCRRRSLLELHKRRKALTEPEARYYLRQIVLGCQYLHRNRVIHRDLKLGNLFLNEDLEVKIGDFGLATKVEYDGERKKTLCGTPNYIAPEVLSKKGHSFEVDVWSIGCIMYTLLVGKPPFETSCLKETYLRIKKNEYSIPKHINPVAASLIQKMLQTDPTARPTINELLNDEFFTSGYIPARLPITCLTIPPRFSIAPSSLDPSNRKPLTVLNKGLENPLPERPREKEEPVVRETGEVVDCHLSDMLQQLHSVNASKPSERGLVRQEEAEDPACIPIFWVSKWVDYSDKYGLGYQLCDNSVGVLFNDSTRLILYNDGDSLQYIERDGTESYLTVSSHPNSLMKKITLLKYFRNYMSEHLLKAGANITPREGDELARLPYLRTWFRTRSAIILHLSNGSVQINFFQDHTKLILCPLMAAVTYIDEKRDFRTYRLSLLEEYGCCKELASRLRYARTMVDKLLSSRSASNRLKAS

[1] = GST-PLK3, 15 min reaction, read-out: Plk3 IC50
[2] = PLK TR-FRET peptide assay, GST-PLK2, 60 min reaction

PLK2, sequence (Q9NYY3 whole entry): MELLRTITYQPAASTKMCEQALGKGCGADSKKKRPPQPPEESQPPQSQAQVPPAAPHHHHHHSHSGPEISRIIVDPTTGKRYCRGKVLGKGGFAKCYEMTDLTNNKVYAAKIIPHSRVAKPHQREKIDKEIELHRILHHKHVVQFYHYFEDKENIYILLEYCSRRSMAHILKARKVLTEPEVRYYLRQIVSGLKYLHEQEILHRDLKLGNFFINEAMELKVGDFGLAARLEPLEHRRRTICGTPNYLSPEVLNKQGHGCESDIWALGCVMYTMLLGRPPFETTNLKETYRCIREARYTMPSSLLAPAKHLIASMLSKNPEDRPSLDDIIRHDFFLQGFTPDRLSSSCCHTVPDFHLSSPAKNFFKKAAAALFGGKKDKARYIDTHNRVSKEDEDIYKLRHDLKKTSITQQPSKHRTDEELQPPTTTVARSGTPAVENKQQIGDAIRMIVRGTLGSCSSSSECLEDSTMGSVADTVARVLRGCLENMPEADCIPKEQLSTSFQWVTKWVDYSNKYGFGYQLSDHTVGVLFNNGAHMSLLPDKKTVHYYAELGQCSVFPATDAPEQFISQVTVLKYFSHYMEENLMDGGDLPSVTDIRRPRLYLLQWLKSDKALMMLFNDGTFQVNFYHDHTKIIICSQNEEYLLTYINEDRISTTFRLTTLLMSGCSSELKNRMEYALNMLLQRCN
PLK3, sequence (Q9H4B4 whole entry): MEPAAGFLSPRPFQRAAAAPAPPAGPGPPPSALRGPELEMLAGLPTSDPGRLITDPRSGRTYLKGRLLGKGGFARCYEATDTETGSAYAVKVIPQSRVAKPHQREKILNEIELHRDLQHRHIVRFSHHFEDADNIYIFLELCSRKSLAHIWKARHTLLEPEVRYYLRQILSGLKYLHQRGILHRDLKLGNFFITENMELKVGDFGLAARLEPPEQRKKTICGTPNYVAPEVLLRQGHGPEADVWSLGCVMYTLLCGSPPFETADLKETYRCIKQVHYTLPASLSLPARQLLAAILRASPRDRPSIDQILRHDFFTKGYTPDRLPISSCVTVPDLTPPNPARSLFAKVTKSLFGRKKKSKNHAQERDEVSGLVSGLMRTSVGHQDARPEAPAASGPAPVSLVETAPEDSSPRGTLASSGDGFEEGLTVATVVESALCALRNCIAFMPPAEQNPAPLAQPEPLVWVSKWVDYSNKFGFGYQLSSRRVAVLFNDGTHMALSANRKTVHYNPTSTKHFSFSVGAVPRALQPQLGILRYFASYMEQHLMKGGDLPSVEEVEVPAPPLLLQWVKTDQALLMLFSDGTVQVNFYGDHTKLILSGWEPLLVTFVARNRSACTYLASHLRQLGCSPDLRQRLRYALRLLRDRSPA

For “7-perdeuteroethyl-8-perdeuteroisopropyl-5-trideuteromethyl-2-(3-phenylpyridin-4-yl)-7,8-dihydropteridin-6(5H)-one [Example 146]”, the pIC50 (PLK2) was > 6.00, the pIC50 (PLK3; [1]) was > 6.00 and the pIC50 (PLK1; GST-PLK1, 60 min reaction) was > 6.00.
With `[2H]C([2H])([2H])N1C(=O)C(C([2H])([2H])C([2H])([2H])[2H])N(C([2H])(C([2H])([2H])[2H])C([2H])([2H])[2H])c2nc(-n3ccnc3-c3ccc(F)cc3)ncc21` (racemic) [Example 162, 7-perdeuteroethyl-2-(2-(4-fluorophenyl)-1H-imidazol-1-yl)-8-perdeuteroisopropyl-5-trideuteromethyl-7,8-dihydropteridin-6(5H)-one] the pIC50 (PLK2; [2]) was > 6.00, the pIC50 (PLK3; [1]) was 5.00 to 6.00 and the pIC50 (PLK1; GST-PLK1, 60 min reaction) was 5.00 to 6.00.
With `[2H]C([2H])([2H])N1C(=O)C(C([2H])([2H])C([2H])([2H])[2H])N(C([2H])(C([2H])([2H])[2H])C([2H])([2H])[2H])c2nc(-n3ccnc3-c3cc(F)cc(F)c3)ncc21` (racemic) [Example 163, 2-(2-(3,5-difluorophenyl)-1H-imidazol-1-yl)-7-perdeuteroethyl-8-perdeuteroisopropyl-5-trideuteromethyl-7,8-dihydropteridin-6(5H)-one] the pIC50 (PLK2; [2]) was > 6.00, the pIC50 (PLK3; [1]) was 4.30 to 5.00 and the pIC50 (PLK1; GST-PLK1, 60 min reaction) was > 6.00.
`[2H]C([2H])([2H])N1C(=O)C(C([2H])([2H])C([2H])([2H])[2H])N(C([2H])(C([2H])([2H])[2H])C([2H])([2H])[2H])c2nc(-n3ccnc3-c3cccc(F)c3)ncc21` (racemic) [Example 180, 7-perdeuteroethyl-2-(2-(3-fluorophenyl)-1H-imidazol-1-yl)-8-perdeuteroisopropyl-5-trideuteromethyl-7,8-dihydropteridin-6(5H)-one] was tested, and the pIC50 (PLK2; [2]) was > 6.00, the pIC50 (PLK3; [1]) was 5.00 to 6.00 and the pIC50 (PLK1; GST-PLK1, 60 min reaction) was > 6.00.
For `CCC12CCCCCN1c1nc(-n3ccnc3-c3ccccc3)ncc1N(C)C2=O` (racemic) [Example 205, (+/−) 6a-ethyl-5-methyl-2-(2-phenyl-1H-imidazol-1-yl)-6a,7,8,9,10,11-hexahydroazepino[2,1-h]pteridin-6(5H)-one], the pIC50 (PLK2; [2]) was > 6.00, the pIC50 (PLK3; [1]) was 4.30 to 5.00 and the pIC50 (PLK1; GST-PLK1, 60 min reaction) was 4.30 to 5.00.
Work on `CCC12CCCCCN1c1nc(-n3ncnc3-c3ccccc3)ncc1N(C)C2=O` (racemic) [Example 216, (+/−) 6a-ethyl-5-methyl-2-(5-phenyl-1H-1,2,4-triazol-1-yl)-6a,7,8,9,10,11-hexahydroazepino[2,1-h]pteridin-6(5H)-one] yielded a pIC50 (PLK2; [2]) of 5.00 to 6.00, a pIC50 (PLK3; [1]) of 4.30 to 5.00 and a pIC50 (PLK1; GST-PLK1, 60 min reaction) of 5.00 to 6.00.
For `CCC12CCCCCN1c1nc(-n3ncnc3-c3cccc4ncccc34)ncc1N(C)C2=O` (racemic) [Example 217, (+/−) 6a-ethyl-5-methyl-2-(5-(quinolin-5-yl)-1H-1,2,4-triazol-1-yl)-6a,7,8,9,10,11-hexahydroazepino[2,1-h]pteridin-6(5H)-one], the pIC50 (PLK2; [2]) was 4.30 to 5.00, the pIC50 (PLK3; [1]) was < 4.30 and the pIC50 (PLK1; GST-PLK1, 60 min reaction) was < 4.30.
In the case of `CCC12CCCCN1c1nc(-n3ccnc3-c3ccccc3)ncc1N(C)C2=O` (racemic) [Example 238, (+/−) 6a-ethyl-5-methyl-2-(2-phenyl-1H-imidazol-1-yl)-7,8,9,10-tetrahydro-5H-pyrido[2,1-h]pteridin-6(6aH)-one], the pIC50 (PLK2; [2]) was > 6.00, the pIC50 (PLK3; [1]) was 4.30 to 5.00 and the pIC50 (PLK1; GST-PLK1, 60 min reaction) was 5.00 to 6.00.
In the case of `CCC12CCCCN1c1nc(-n3ccnc3-c3cccc(F)c3)ncc1N(C)C2=O` (racemic) [Example 239, (+/−) 6a-ethyl-2-(2-(3-fluorophenyl)-1H-imidazol-1-yl)-5-methyl-7,8,9,10-tetrahydro-5H-pyrido[2,1-h]pteridin-6(6aH)-one], the pIC50 (PLK2; [2]) was > 6.00, the pIC50 (PLK3; [1]) was 4.30 to 5.00 and the pIC50 (PLK1; GST-PLK1, 60 min reaction) was 5.00 to 6.00.
`CCC12CCCCN1c1nc(-n3ccnc3-c3ccc(F)c(F)c3)ncc1N(C)C2=O` (racemic) [Example 240, (+/−) 2-(2-(3,4-difluorophenyl)-1H-imidazol-1-yl)-6a-ethyl-5-methyl-7,8,9,10-tetrahydro-5H-pyrido[2,1-h]pteridin-6(6aH)-one] was tested, and the pIC50 (PLK2; [2]) was > 6.00, the pIC50 (PLK3; [1]) was 4.30 to 5.00 and the pIC50 (PLK1; GST-PLK1, 60 min reaction) was 5.00 to 6.00.
In the case of `CCC12CCCCN1c1nc(-n3ccnc3-c3cc(F)cc(F)c3)ncc1N(C)C2=O` (racemic) [Example 243, (+/−) 2-(2-(3,5-difluorophenyl)-1H-imidazol-1-yl)-6a-ethyl-5-methyl-7,8,9,10-tetrahydro-5H-pyrido[2,1-h]pteridin-6(6aH)-one], the pIC50 (PLK2; [2]) was > 6.00, the pIC50 (PLK3; [1]) was < 4.30 and the pIC50 (PLK1; GST-PLK1, 60 min reaction) was 4.30 to 5.00.
With `CCC12CCCCN1c1nc(-n3ccnc3-c3cccc(F)c3F)ncc1N(C)C2=O` (racemic) [Example 248, (+/−) 2-(2-(2,3-difluorophenyl)-1H-imidazol-1-yl)-6a-ethyl-5-methyl-7,8,9,10-tetrahydro-5H-pyrido[2,1-h]pteridin-6(6aH)-one] the pIC50 (PLK2; [2]) was > 6.00, the pIC50 (PLK3; [1]) was 4.30 to 5.00 and the pIC50 (PLK1; GST-PLK1, 60 min reaction) was 5.00 to 6.00.
For `CCC12CCCCN1c1nc(-n3ccnc3-c3cc(F)c(F)c(F)c3)ncc1N(C)C2=O` (racemic) [Example 256, (+/−) 6a-ethyl-5-methyl-2-(2-(3,4,5-trifluorophenyl)-1H-imidazol-1-yl)-7,8,9,10-tetrahydro-5H-pyrido[2,1-h]pteridin-6(6aH)-one], the pIC50 (PLK2; [2]) was > 6.00, the pIC50 (PLK3; [1]) was < 4.30 and the pIC50 (PLK1; GST-PLK1, 60 min reaction) was < 4.30.
`CCC12CCCCN1c1nc(-n3ccnc3-c3ccc(F)cc3F)ncc1N(C)C2=O` (racemic) [Example 257, (+/−) 2-(2-(2,4-difluorophenyl)-1H-imidazol-1-yl)-6a-ethyl-5-methyl-7,8,9,10-tetrahydro-5H-pyrido[2,1-h]pteridin-6(6aH)-one] was tested, and the pIC50 (PLK2; [2]) was > 6.00, the pIC50 (PLK3; [1]) was 4.30 to 5.00 and the pIC50 (PLK1; GST-PLK1, 60 min reaction) was 4.30 to 5.00.
`CCC12CCCCN1c1nc(-n3ccnc3)ncc1N(C)C2=O` (racemic) [Example 283, (+/−) 6a-ethyl-2-(1H-imidazol-1-yl)-5-methyl-7,8,9,10-tetrahydro-5H-pyrido[2,1-h]pteridin-6(6aH)-one] was tested, and the pIC50 (PLK2; [2]) was 4.30 to 5.00, the pIC50 (PLK3; [1]) was < 4.30 and the pIC50 (PLK1; GST-PLK1, 60 min reaction) was < 4.30.
For `CCC1C(=O)N(C)c2cnc(-c3cnsc3-c3ccc(F)cc3)nc2N1c1cccc(C#N)c1` (racemic) [Example 401, 3-(7-ethyl-2-(5-(4-fluorophenyl)isothiazol-4-yl)-5-methyl-6-oxo-6,7-dihydropteridin-8(5H)-yl)benzonitrile], the pIC50 (PLK2; PLK TR-FRET peptide assay, GST-PLK2) was > 6.00, the pIC50 (PLK3; GST-PLK3, read-out: Plk3 IC50) was 5.00 to 6.00 and the pIC50 (PLK1; GST-PLK1) was 5.00 to 6.00.
`CC[C@@H]1C(=O)N(C)c2cnc(-c3ccnc(NC)c3)nc2N1C1CCCC1` [Example 20, (R)-8-cyclopentyl-7-ethyl-5-methyl-2-(2-(methylamino)pyridin-4-yl)-7,8-dihydropteridin-6(5H)-one] was tested, and the pIC50 (PLK2; [2]) was > 6.00, the pIC50 (PLK3; [1]) was 4.30 to 5.00 and the pIC50 (PLK1; GST-PLK1, 60 min reaction) was > 6.00.
For `CC[C@@H]1C(=O)N(C)c2cnc(-c3ccnc(N(C)C)c3)nc2N1C1CCCC1` [Example 21, (R)-8-cyclopentyl-2-(2-(dimethylamino)pyridin-4-yl)-7-ethyl-5-methyl-7,8-dihydropteridin-6(5H)-one], the pIC50 (PLK2; [2]) was > 6.00, the pIC50 (PLK3; [1]) was 4.30 to 5.00 and the pIC50 (PLK1; GST-PLK1, 60 min reaction) was > 6.00.
`CC[C@@H]1C(=O)N(C)c2cnc(-c3ccncc3)nc2N1C(C)C` [Example 23, (R)-7-ethyl-8-isopropyl-5-methyl-2-(pyridin-4-yl)-7,8-dihydropteridin-6(5H)-one] was tested, and the pIC50 (PLK2; [2]) was > 6.00, the pIC50 (PLK3; [1]) was < 4.30 and the pIC50 (PLK1; GST-PLK1, 60 min reaction) was 5.00 to 6.00.
In the case of `CC[C@@H]1C(=O)N(C)c2cnc(-n3ccnc3C)nc2N1C1CCCC1` [Example 27, (R)-8-cyclopentyl-7-ethyl-5-methyl-2-(2-methyl-1H-imidazol-1-yl)-7,8-dihydropteridin-6(5H)-one], the pIC50 (PLK2; [2]) was > 6.00, the pIC50 (PLK3; [1]) was < 4.30 and the pIC50 (PLK1; GST-PLK1, 60 min reaction) was 5.00 to 6.00.
In the case of `CC[C@@H]1C(=O)Nc2cnc(-n3cccn3)nc2N1C1CCCC1` [Example 29, (R)-8-cyclopentyl-7-ethyl-2-(1H-pyrazol-1-yl)-7,8-dihydropteridin-6(5H)-one], the pIC50 (PLK2; [2]) was < 4.30, the pIC50 (PLK3; [1]) was < 4.30 and the pIC50 (PLK1; GST-PLK1, 60 min reaction) was < 4.30.
With `CC[C@@H]1C(=O)N(C)c2cnc(-c3cn[nH]c3)nc2N1C(C)C` [Example 31, (R)-7-ethyl-8-isopropyl-5-methyl-2-(1H-pyrazol-4-yl)-7,8-dihydropteridin-6(5H)-one] the pIC50 (PLK2; [2]) was > 6.00, the pIC50 (PLK3; [1]) was < 4.30 and the pIC50 (PLK1; GST-PLK1, 60 min reaction) was 5.00 to 6.00.
For `CC[C@@H]1C(=O)N(C)c2cnc(-c3cnc4[nH]ccc4c3)nc2N1C1CCCC1` [Example 32, (R)-8-cyclopentyl-7-ethyl-5-methyl-2-(1H-pyrrolo[2,3-b]pyridin-5-yl)-7,8-dihydropteridin-6(5H)-one], the pIC50 (PLK2; [2]) was > 6.00, the pIC50 (PLK3; [1]) was 5.00 to 6.00 and the pIC50 (PLK1; GST-PLK1, 60 min reaction) was > 6.00.
In the case of `CN1C(=O)[C@H]2CCCN2c2nc(-n3ccnc3)ncc21` [Example 33, (R)-2-(1H-imidazol-1-yl)-5-methyl-6a,7,8,9-tetrahydropyrrolo[2,1-h]pteridin-6(5H)-one], the pIC50 (PLK2; [2]) was 4.30 to 5.00, the pIC50 (PLK3; [1]) was < 4.30 and the pIC50 (PLK1; GST-PLK1, 60 min reaction) was < 4.30.
For `CN1C(=O)[C@H]2CCCN2c2nc(-c3ccncc3)ncc21` [Example 34, (R)-5-methyl-2-(pyridin-4-yl)-6a,7,8,9-tetrahydropyrrolo[2,1-h]pteridin-6(5H)-one], the pIC50 (PLK2; [2]) was < 4.30, the pIC50 (PLK3; [1]) was < 4.30 and the pIC50 (PLK1; GST-PLK1, 60 min reaction) was < 4.30.
`CC[C@@H]1C(=O)N(C)c2cnc(-n3cnc(-c4ccccc4)c3)nc2N1C1CCCC1` [Example 36, (R)-8-cyclopentyl-7-ethyl-5-methyl-2-(4-phenyl-1H-imidazol-1-yl)-7,8-dihydropteridin-6(5H)-one] was tested, and the pIC50 (PLK2; [2]) was > 6.00, the pIC50 (PLK3; [1]) was 4.30 to 5.00 and the pIC50 (PLK1; GST-PLK1, 60 min reaction) was > 6.00.
`CC[C@@H]1C(=O)N(C)c2cnc(-n3cccn3)nc2N1C1CCCC1` [Example 42, (R)-8-cyclopentyl-7-ethyl-5-methyl-2-(1H-pyrazol-1-yl)-7,8-dihydropteridin-6(5H)-one] was tested, and the pIC50 (PLK2; [2]) was > 6.00, the pIC50 (PLK3; [1]) was 4.30 to 5.00 and the pIC50 (PLK1; GST-PLK1, 60 min reaction) was 5.00 to 6.00.
`CC[C@@H]1C(=O)N(C)c2cnc(-n3ccnc3)nc2N1C1CC(F)(F)C1` [Example 303, (R)-8-(3,3-difluorocyclobutyl)-7-ethyl-2-(1H-imidazol-1-yl)-5-methyl-7,8-dihydropteridin-6(5H)-one] gave a pIC50 (PLK3; [1]) of 4.30 to 5.00 and a pIC50 (PLK1; GST-PLK1, 60 min reaction) of 4.30 to 5.00.
